Test results from patent US11358957B2, “Microbiocidal oxadiazole derivatives” (SYNGENTA PARTICIPATIONS AG, priority 2017, dated 2022).

Columns and labels:
[1] = test system: Puccinia recondita f. Sp. Tritici; assay: Fungicidal activity against Puccinia recondita f. sp. tritici / wheat / leaf disc preventative (brown rust); format: in vivo; conditions: foliar, 200 ppm in the applied formulation, wheat leaf segments cv. Kanzler, preventative (inoculated 1 day after application), compared to untreated, read-out: disease control
Experimental: Leaf disks or leaf segments of various plant species are cut from plants grown in a greenhouse. The cut leaf disks or segments are placed in multiwell plates (24-well format) onto water agar. The leaf disks are sprayed with a test solution before (preventative) or after (curative) inoculation. Compounds to be tested are prepared as DMSO solutions (max. 10 mg/mL) which are diluted to the appropriate concentration with 0.025% Tween20 just before spraying. The inoculated leaf disks or segments are incubated under defined conditions (temperature, relative humidity, light, etc.) according to the respective test system. A single evaluation of disease level is carried out 3 to 14 days after inoculation, depending on the pathosystem. Percent disease control relative to the untreated check leaf disks or segments is then calculated. Wheat leaf segments cv. Kanzler were placed on agar in multiwell plates (24-well format) and sprayed with the formulated test compound diluted in water. The leaf disks were inoculated with a spore suspension of the fungus 1 day after application. The inoculated leaf segments were incubated at 19° C. and 75% relative humidity (rh) under a light regime of 12 hours light/12 hours darkness in a climate cabinet and the activity of a compound was assessed as percent disease control compared to untreated when an appropriate level of disease damage appears in untreated check leaf segments (7 to 9 days after application). The following compounds at 200 ppm in the applied formulation give at least 80% disease control in this test when compared to untreated control leaf disks under the same conditions, which show extensive disease development.

[2] = test system: Glomerella lagenarium (Colletotrichum lagenarium); assay: Fungicidal activity against Glomerella lagenarium (Colletotrichum lagenarium) liquid culture / cucumber / preventative (anthracnose); format: cell-based; conditions: Colletotrichum orbiculare; 20 ppm in the applied formulation; liquid culture (PDB), inhibition of growth measured photometrically 3 to 4 days after application; compared to untreated; read-out: disease control
Experimental: Mycelia fragments or conidia suspensions of a fungus prepared either freshly from liquid cultures of the fungus or from cryogenic storage, are directly mixed into nutrient broth. DMSO solutions of the test compound (max. 10 mg/mL) are diluted with 0.025% Tween20 by a factor of 50 and 10 μL of this solution is pipetted into a microtiter plate (96-well format). The nutrient broth containing the fungal spores/mycelia fragments is then added to give an end concentration of the tested compound. The test plates are incubated in the dark at 24° C. and 96% relative humidity. The inhibition of fungal growth is determined photometrically after 2 to 7 days, depending on the pathosystem, and percent antifungal activity relative to the untreated check is calculated. Conidia of the fungus from cryogenic storage are directly mixed into nutrient broth (PDB—potato dextrose broth). After placing a (DMSO) solution of test compound into a microtiter plate (96-well format), the nutrient broth containing the fungal spores is added. The test plates are incubated at 24° C. and the inhibition of growth is measured photometrically 3 to 4 days after application. The following compounds at 20 ppm in the applied formulation give at least 80% disease control in this test when compared to untreated control under the same conditions, which show extensive disease development.

[3] = test system: Puccinia recondita f. Sp. Tritici; assay: Fungicidal activity against Puccinia recondita f. sp. tritici / wheat / leaf disc curative (brown rust); format: in vivo; conditions: foliar, 24 h, 200 ppm in the applied formulation, wheat leaf segments cv. Kanzler, curative (applied 1 day after inoculation), compared to untreated, read-out: disease control
Experimental: Leaf disks or leaf segments of various plant species are cut from plants grown in a greenhouse. The cut leaf disks or segments are placed in multiwell plates (24-well format) onto water agar. The leaf disks are sprayed with a test solution before (preventative) or after (curative) inoculation. Compounds to be tested are prepared as DMSO solutions (max. 10 mg/mL) which are diluted to the appropriate concentration with 0.025% Tween20 just before spraying. The inoculated leaf disks or segments are incubated under defined conditions (temperature, relative humidity, light, etc.) according to the respective test system. A single evaluation of disease level is carried out 3 to 14 days after inoculation, depending on the pathosystem. Percent disease control relative to the untreated check leaf disks or segments is then calculated. Wheat leaf segments cv. Kanzler are placed on agar in multiwell plates (24-well format). The leaf segments are then inoculated with a spore suspension of the fungus. Plates were stored in darkness at 19C and 75% relative humidity. The formulated test compound diluted in water was applied 1 day after inoculation. The leaf segments were incubated at 19° C. and 75% relative humidity under a light regime of 12 hours light/12 hours darkness in a climate cabinet and the activity of a compound was assessed as percent disease control compared to untreated when an appropriate level of disease damage appears in untreated check leaf segments (6 to 8 days after application). The following compounds at 200 ppm in the applied formulation give at least 80% disease control in this test when compared to untreated control leaf disks under the same conditions, which show extensive disease development.

Row | Structure (SMILES) | pest or weed control at 200 ppm [1] [%] | inhibition of growth at 20 ppm [2] [%] | pest or weed control at 200 ppm [3] [%]
1 | CC1(C)CC(=O)N(Cc2ccc(-c3noc(C(F)(F)F)n3)s2)O1 [Compound 1.3, 5,5-dimethyl-2-[[5-[5-(trifluoromethyl)-1,2,4-oxadiazol-3-yl]-2-thienyl]methyl] isoxazolidin-3-one] | ≥ 80 | ≥ 80 | –
2 | Cc1cnn(Cc2ccc(-c3noc(C(F)(F)F)n3)s2)c1 [Compound 1.5, 3-[5-[(4-methylpyrazol-1-yl)methyl]-2-thienyl]-5-(trifluoromethyl)-1,2,4-oxadiazole] | ≥ 80 | ≥ 80 | –
3 | FC(F)(F)c1nc(-c2ccc(Cn3cccn3)s2)no1 [Compound 1.7, 3-[5-(pyrazol-1-ylmethyl)-2-thienyl]-5-(trifluoromethyl)-1,2,4-oxadiazole] | ≥ 80 | ≥ 80 | –
4 | FC(F)(F)c1nc(-c2ccc(Cn3nnnc3-c3ccccc3Br)s2)no1 [Compound 1.10, 3-[5-[[5-(2-bromophenyl)tetrazol-1-yl]methyl]-2-thienyl]-5-(trifluoromethyl)-1,2,4-oxadiazole] | ≥ 80 | ≥ 80 | –
5 | Fc1cnn(Cc2ccc(-c3noc(C(F)(F)F)n3)s2)c1 [Compound 1.12, 3-[5-[(4-fluoropyrazol-1-yl)methyl]-2-thienyl]-5-(trifluoromethyl)-1,2,4-oxadiazole] | ≥ 80 | ≥ 80 | –
6 | FC(F)(F)c1nc(-c2ccc(CN3CCCC3)s2)no1 [Compound 1.15, 3-[5-(pyrrolidin-1-ylmethyl)-2-thienyl]-5-(trifluoromethyl)-1,2,4-oxadiazole] | – | ≥ 80 | –
7 | FC(F)(F)c1nc(-c2ccc(CN3CCOCC3)s2)no1 [Compound 1.18, 4-[[5-[5-(trifluoromethyl)-1,2,4-oxadiazol-3-yl]-2-thienyl]methyl]morpholine] | ≥ 80 | ≥ 80 | –
8 | FC(F)(F)c1nc(-c2ccc(CN3CCC3)s2)no1 [Compound 1.20, 3-[5-(azetidin-1-ylmethyl)-2-thienyl]-5-(trifluoromethyl)-1,2,4-oxadiazole] | – | ≥ 80 | –
9 | Cc1cccc(=O)n1Cc1cc(-c2noc(C(F)(F)F)n2)cs1 [Compound 1.27, 6-methyl-1-[[4-[5-(trifluoromethyl)-1,2,4-oxadiazol-3-yl]-2-thienyl]methyl]pyridin-2-one] | – | ≥ 80 | –
10 | CC1(C)CC(=O)N(Cc2cc(-c3noc(C(F)(F)F)n3)cs2)O1 [Compound 1.28, 5,5-dimethyl-2-[[4-[5-(trifluoromethyl)-1,2,4-oxadiazol-3-yl]-2-thienyl]methyl] isoxazolidin-3-one] | – | ≥ 80 | –
11 | O=S1(=O)CCCN1Cc1cc(-c2noc(C(F)(F)F)n2)cs1 [Compound 1.29, 2-[[4-[5-(trifluoromethyl)-1,2,4-oxadiazol-3-yl]-2-thienyl]methyl]-1,2-thiazolidine 1,1-dioxide] | – | ≥ 80 | –
12 | O=C1CCCCN1Cc1cc(-c2noc(C(F)(F)F)n2)cs1 [Compound 1.31, 1-[[4-[5-(trifluoromethyl)-1,2,4-oxadiazol-3-yl]-2-thienyl]methyl]piperidin-2-one] | – | ≥ 80 | –
13 | CC(c1ccc(-c2noc(C(F)(F)F)n2)s1)n1cc(C(=O)NC2CCCCC2)cn1 (stereo not drawn) [Compound 1.71, N-cyclohexyl-1-[1-[5-[5-(trifluoromethyl)-1,2,4-oxadiazol-3-yl]-2-thienyl]ethyl]pyrazole-4-carboxamide] | ≥ 80 | ≥ 80 | –
14 | CC(c1ccc(-c2noc(C(F)(F)F)n2)s1)n1cc(C(=O)NC2CCCC2)cn1 (stereo not drawn) [Compound 1.83, N-cyclopentyl-1-[1-[5-[5-(trifluoromethyl)-1,2,4-oxadiazol-3-yl]-2-thienyl]ethyl]pyrazole-4-carboxamide] | ≥ 80 | – | ≥ 80
15 | O=C(Nc1ccccc1)c1cnn(Cc2ccc(-c3noc(C(F)(F)F)n3)s2)c1 [Compound 1.115, N-phenyl-1-[[5-[5-(trifluoromethyl)-1,2,4-oxadiazol-3-yl]-2-thienyl]methyl]pyrazole-4-carboxamide] | ≥ 80 | ≥ 80 | –
16 | O=C(NC1CCCCC1)c1ncn(Cc2ccc(-c3noc(C(F)(F)F)n3)s2)n1 [Compound 1.149, N-cyclohexyl-1-[[5-[5-(trifluoromethyl)-1,2,4-oxadiazol-3-yl]-2-thienyl]methyl]-1,2,4-triazole-3-carboxamide] | ≥ 80 | ≥ 80 | –
17 | CCC(C)NC(=O)c1ccnn1Cc1ccc(-c2noc(C(F)(F)F)n2)s1 (stereo not drawn) [Compound 1.155, N-sec-butyl-2-[[5-[5-(trifluoromethyl)-1,2,4-oxadiazol-3-yl]-2-thienyl]methyl]pyrazole-3-carboxamide] | ≥ 80 | ≥ 80 | –
18 | CC(C)(C)CNC(=O)c1ccnn1Cc1ccc(-c2noc(C(F)(F)F)n2)s1 [Compound 1.156, N-(2,2-dimethylpropyl)-2-[[5-[5-(trifluoromethyl)-1,2,4-oxadiazol-3-yl]-2-thienyl]methyl]pyrazole-3-carboxamide] | ≥ 80 | ≥ 80 | –
19 | CC(C)NC(=O)c1ccnn1Cc1ccc(-c2noc(C(F)(F)F)n2)s1 [Compound 1.157, N-isopropyl-2-[[5-[5-(trifluoromethyl)-1,2,4-oxadiazol-3-yl]-2-thienyl]methyl]pyrazole-3-carboxamide] | ≥ 80 | ≥ 80 | –
20 | O=C(NC1CCCCC1)c1ccnn1Cc1ccc(-c2noc(C(F)(F)F)n2)s1 [Compound 1.159, N-cyclohexyl-2-[[5-[5-(trifluoromethyl)-1,2,4-oxadiazol-3-yl]-2-thienyl]methyl]pyrazole-3-carboxamide] | ≥ 80 | ≥ 80 | –
21 | O=C(Nc1ccccc1)c1ccnn1Cc1ccc(-c2noc(C(F)(F)F)n2)s1 [Compound 1.162, N-phenyl-2-[[5-[5-(trifluoromethyl)-1,2,4-oxadiazol-3-yl]-2-thienyl]methyl]pyrazole-3-carboxamide] | ≥ 80 | ≥ 80 | –
22 | O=C(NCc1ccccc1)c1ccnn1Cc1ccc(-c2noc(C(F)(F)F)n2)s1 [Compound 1.163, N-benzyl-2-[[5-[5-(trifluoromethyl)-1,2,4-oxadiazol-3-yl]-2-thienyl]methyl]pyrazole-3-carboxamide] | ≥ 80 | ≥ 80 | –
23 | O=C(NC1CCCC1)c1ccnn1Cc1ccc(-c2noc(C(F)(F)F)n2)s1 [Compound 1.165, N-cyclopentyl-2-[[5-[5-(trifluoromethyl)-1,2,4-oxadiazol-3-yl]-2-thienyl]methyl]pyrazole-3-carboxamide] | ≥ 80 | ≥ 80 | –
24 | CC(C)(C)NC(=O)c1ccnn1Cc1ccc(-c2noc(C(F)(F)F)n2)s1 [Compound 1.167, N-tert-butyl-2-[[5-[5-(trifluoromethyl)-1,2,4-oxadiazol-3-yl]-2-thienyl]methyl]pyrazole-3-carboxamide] | ≥ 80 | ≥ 80 | –
